Measurements: patent US11185551B2, “Peripherally-restricted dual-acting kappa and delta opioid agonist for analgesia in pain states involving the inflammatory response” (Caventure Drug Discovery, Inc., priority 2017, dated 2021)

Columns and labels:
[1] = test system: CFA-induced mechanical hyperalgesia; assay: CFA model of rheumatoid arthritis pain in rats (joint compression thresholds); format: in vivo, male Sprague-Dawley rats; conditions: for improvement of compression thresholds vs vehicle: 30 mg/kg PO
Experimental: Following IACUC approval and acclimation, inflammatory arthritis pain was induced in 55 male, Sprague-Dawley rats by intracapsular injection of 50 μL of 100% complete Freund's adjuvant (CFA) into the tibio-tarsal joint of the left hind leg. Mechanical hyperalgesia was assessed via joint compression thresholds (JCTs), JCTs were determined prior to CFA injection and 14 days post-CFA, prior to study article administration. At that time, 50 animals that met the inclusion criterion were randomly assigned to 5 groups with 10 animals per group (Table 3). To further confirm the validity as a model for arthritic pain, the anti-inflammatory cyclooxygenase-2 inhibitor, celecoxib, was used as an active control.
(§1) Animals were administered a single dose of test or control compound on day 0 (i.e., 14 days after administration of CFA) and thresholds were determined 1, 2, and 4 hours after compound administration. JCTs in test compound-treated animals were compared to those in vehicle-treated animals to determine the analgesic efficacy of the test compound. All behavioral evaluations were performed by a blinded observer.
Mechanical hyperalgesia was measured using a digital Randall-Selitto device (dRS; IITC Life Sciences©; Woodland Hills, Calif.; see Randall, L. O., and J. J. Selitto, “A Method for Measurement of Analgesic Activity on Inflamed Tissue.” Arch. Int. Pharmcodyn. 11 (1957): 409-19). Animals were allowed to acclimate to the testing room for a minimum of 15 minutes before testing. Animals were placed in a restraint sling that suspended the animal, leaving the hind limbs available for testing. The stimulus was applied to the ankle joint by a blunt tip and pressure was applied gradually over approximately 10 seconds. Joint compression threshold values were recorded at the first observed nocifensive behavior (vocalization, struggle, or withdrawal). One reading per joint was taken at each time point, and a maximum stimulus cutoff of 500 grams was used to prevent injury to the animal. The mean and standard error of the mean (SEM) were determined for ipsilateral and contralateral joints for each treatment group at each time point.
All testing was performed in a blinded manner, with all experimenters involved in the study being unaware of the group assignment of any animal they were testing. Animals were assigned to treatment groups based on Day 0 pre-dosing JCTs so that group means of the ipsilateral JCTs were approximately equal. Animals were ranked by ipsilateral JCT and treatments assigned randomly within stratified sub-groups according to the total number of treatment groups in the study. The volume of test or control article injected was 5 mL/kg. The animals were dosed in sequence based on animal number so that the distribution of treatment across a given set of animals was not predictable.

[2] = test system: formalin-evoked spontaneous nociceptive behaviors; assay: Formalin model of pain in mice; format: in vivo, C57BL6 mice
Experimental: The objective of this study was to evaluate the effects of Compound 1 and a peripherally-restricted kappa agonist (ICI204448) on formalin-evoked spontaneous nociceptive behaviors in mice. The study was performed by video recording of formalin-induced nociceptive behavior and then off-line scoring using a computer.
Subcutaneous plantar injection of formalin causes a bi-phasic nocifensive behavioral response in rodents. The early phase (phase 1) lasts for about 5-10 minutes, following which an interphase occurs without any discernible nociceptive reactions, after which the late phase (phase 2) nociceptive reaction ensues continuing from about 20-60 min following formalin injection. Thus, phase 2 of the formalin model is a model of continuously present, persistent pain, and is widely used for rapid screening of novel analgesic compounds. The model encompasses inflammatory, neurogenic and central mechanisms of nociception, and the late phase (phase 2), in particular, is considered as a pharmacodynamic surrogate of central sensitization.
In the present study, the effects of Compound 1 and ICI204448 were assessed from 0-5 minutes for the early phase (phase 1) and from 20-35 minutes for the late phase (phase 2) of formalin-induced nociceptive behavior.
Following IACUC approval and acclimation C57BL6 mice (Charles River Canada Inc.), 20-30 g, were randomly assigned into groups with 8 mice per group as provided in Table 1:
All animals were acclimated to the observation chamber for about 15 minutes immediately prior to formal in injection. […]
Following injection of the formalin all animals were returned immediately to the observation chamber and formalin-evoked spontaneous nociceptive behaviors in the mice were continuously recorded for 0-40 minutes using a commercial camcorder. […]
Scoring from the recorded video files were done off-line using a computer by a blinded observer who has been validated to score such nociceptive behaviors in rodents. The total (cumulative) time spent in a 5-minute bin was recorded using a stop-watch for the following nociceptive behaviors: biting and licking of the formalin-injected paw.
Effects of the ICI204448 or Compound 1 were assessed in the following time periods: 0-5 minutes for the early phase (phase 1) and 20-35 minutes for the late phase (phase 2).
Mice were injected with formalin in the hind paw after pretreatment with vehicle, high and low doses of a peripherally-restricted kappa opioid agonist (ICI204448) and high and low doses of the peripherally-restricted Compound 1. Pain was measured for 35 minutes after injection. Additionally, urine output was measured using metabolic cages in each group of mice. […]

[3] = test system: SNL-induced mechanical hyperalgesia; assay: Spinal nerve ligation (SNL) model for neuropathic pain in the rat (paw compression thresholds); format: in vivo, male Sprague-Dawley rats
Experimental: Following IACUC approval and acclimation, neuropathy was induced in 55 male, Sprague-Dawley rats by surgically ligating the 5th and 6th lumbar spinal nerves (L5 and L6), a procedure also known as spinal nerve ligation (SNL). Mechanical sensitivity was assessed via paw compression thresholds using a digital Randall-Selitto device. Thresholds were determined prior to surgery and 15 days post-surgery, prior to study article administration. At that time, 50 animals that met the inclusion criteria were assigned to 5 groups with 10 animals per group (Table 5). To further confirm the validity as a model for neuropathic pain, gabapentin was used as an active control.
as §1, with “15” for “14”, “SNL)” for “administration of CFA)”, “Response thresholds” for “JCTs”
Mechanical hyperalgesia was measured using a digital Randall-Selitto device (dRS; IITC Life Sciences©; Woodland Hills, Calif.) (see Randall, L. O., and J. J. Selitto. “A Method for Measurement of Analgesic Activity on Inflamed Tissue.” Arch. Int. Pharmcodyn. 11 (1957): 409-19). Animals were allowed to acclimate to the testing room for a minimum of 15 minutes before testing. Animals were placed in a restraint sling that suspends the animal, leaving the hind limbs available for testing. The stimulus was applied to the plantar surface of the hind paw by a cone-shaped tip and pressure was applied gradually over approximately 10 seconds. Paw compression threshold values were recorded at the first observed nocifensive behavior (vocalization, struggle, or withdrawal). One reading per paw was taken at each time point, and a maximum stimulus cutoff of 300 grams was used to prevent injury to the animal. The mean and standard error of the mean (SEM) were determined for ipsilateral and contralateral paws for each treatment group at each time point.
All testing was performed in a blinded manner, with all experimenters involved in the study being unaware of the group assignment of any animal they were testing.
Animals were assigned to treatment groups based on Day 0 pre-dosing dRS paw compression thresholds so that group means of the ipsilateral paw compression thresholds were approximately equal. Animals were ranked by ipsilateral paw compression threshold measurement from lowest to highest and treatments assigned randomly within stratified sub-groups according to the total number of treatment groups in the study.
The volume of test or control article injected was 5 mL/kg. The animals were dosed in sequence based on animal number, so that the distribution of treatment across a given set of animals was not predictable.

[4] = test system: osteolytic bone cancer pain induced by MRMT-1 inoculation; assay: MRMT-1 model of osteolytic bone cancer pain in the rat (percent weight bearing score); format: in vivo, female Sprague-Dawley rats
Experimental: Osteolytic bone cancer was produced by an injection of 3000 mammary gland carcinoma cells (MRMT-1) into the intramedullary space of the tibia. Animals received either vehicle or Compound 1 (10 mg/kg) intraperitoneally on Day 0. Morphine (6 mg/kg) served as the positive control for this study and was administered via subcutaneous injection. Bone cancer pain was assessed by measuring hind limb percent weight bearing scores (percent WBS) prior to inoculation (study day −21), and prior to administration (BL), 1, 2, and 4 hours after administration on Day 0.
Hind limb weight bearing scores (WBS) are measured using a Linton Incapacitance Tester (Stoelting Co.©, Wood Dale, Ill.; see Medhurst, S. J., K. Walker, M. Bowes, B. L. Kidd, M. Glatt, M. Muller, M. Hattenberger, J. Vaxelaire, T. O'Reilly, G. Wotherspoon, J. Winter, J. Green, and L. Urban. “A Rat Model of Bone Cancer Pain.” Pain 96 (2002): 129-40). Animals were allowed to acclimate to the testing room for a minimum of 15 minutes before testing. Animals are placed in an acrylic test chamber. When the animal is in the correct position in the test chamber an evaluation of force was taken, with the evaluation measuring the average force exerted individually by each hind paw over a three second interval. Three evaluations of force per animal are taken at each time point. The percent WBS for the injured leg is calculated for each evaluation of force using the following formula: […]
The mean of the 3% WBS values is taken as the % WBS for that time point. The mean and standard error of the mean (SEM) are determined for each treatment group at each time point.
Dosing: The volume of test or negative control article injected was 5 mL/kg via intraperitoneal injection or 2 mL/kg via subcutaneous injection for morphine. The animals were dosed in sequence based on animal number, so that the distribution of treatment across a given set of animals was not predictable (Table 7).

Structure (SMILES): Cc1ccc(-c2cc(C(F)(F)F)nn2-c2ccc(S(N)(=O)=O)cc2)cc1 [Celecoxib, reference compound]
- improvement of compression thresholds vs vehicle ([1]; 1-hour): did not significantly improve thresholds
- improvement of compression thresholds vs vehicle ([1]; 2-hour and 4-hour): did show improvement compared to vehicle

Structure (SMILES): CC(C)C[C@H]1CN2C(=CC3=NC[C@H](C(C)C)N3C[C@@H]2Cc2ccc(O)cc2)N1CCc1ccccc1 [Compound 1, 4-(((2S,5S,8S)-2-isobutyl-8-isopropyl-1-phenethyl-2,3,5,6,8,9-hexahydro-1H-diimidazo[1,2-d:2′,1′-g][1,4]diazepin-5-yl)methyl)phenol]
- pain behaviors, effect of low dose ([2]; 1 mg/kg IP, phase 2, compared with ICI204448 10 mg/kg): the same effect as a high dose of ICI204448
- pain response, effect of high dose ([2]; 10 mg/kg IP, phase 2): complete elimination of the pain response
- time spent on pain (nociceptive) behaviors vs ICI204448 ([2]; 30-35 minutes, Compound 1 dose less than 10% of ICI204448 on a molar basis): at least as effective as ICI204448
- pain behaviors (biting and licking of formalin-injected paw) ([2]; IP 30 min before formalin, 20-25, 25-30, 30-35 minutes (phase 2), compared with vehicle and ICI204448): reduced pain behaviors
- reversal of SNL-induced mechanical hyperalgesia ([3]; 1 mg/kg IP, any time point tested (1, 2, 4 hours)): did not significantly reverse SNL-induced mechanical hyperalgesia
- reversal of SNL-induced mechanical hyperalgesia ([3]; 5 mg/kg IP, 1-hour): did not significantly reverse SNL-induced mechanical hyperalgesia
- reversal of SNL-induced mechanical hyperalgesia ([3]; 5 mg/kg IP, 2-hour and 4-hour): did significantly reverse SNL-induced mechanical hyperalgesia
- reversal of SNL-induced mechanical hyperalgesia ([3]; 10 mg/kg IP, 1-hour): did not significantly reverse SNL-induced mechanical hyperalgesia
- reversal of SNL-induced mechanical hyperalgesia ([3]; 10 mg/kg IP, 2-hour and 4-hour): did significantly reverse SNL-induced mechanical hyperalgesia
- reversal of mechanical hyperalgesia compared with active control ([3]; Compound 1 5 mg/kg and 10 mg/kg vs gabapentin 100 mg/kg): did not differ significantly from the active control, gabapentin
- reversal of mechanical hyperalgesia (JCT) ([1]; 1 mg/kg IP, 2-hour and 4-hour): significantly reversed mechanical hyperalgesia
- reversal of mechanical hyperalgesia (JCT) ([1]; 5 mg/kg IP, 2-hour and 4-hour): significantly reversed mechanical hyperalgesia
- reversal of mechanical hyperalgesia (JCT) ([1]; 10 mg/kg IP, 1, 2, and 4 hours post dose): significantly reversed mechanical hyperalgesia
- reversal in mechanical hyperalgesia compared with active control ([1]; Compound 1 IP vs celecoxib 30 mg/kg PO): comparable to the active control, celecoxib
- reversal of hind limb weight bearing asymmetry vs pre-dosing baseline ([4]; 10 mg/kg IP, 4 hours): significant reversal of hind limb weight bearing asymmetry

Structure (SMILES): NCC1(CC(=O)O)CCCCC1 [Gabapentin, reference compound]
- reversal of SNL-induced mechanical hyperalgesia ([3]; 100 mg/kg IP, 1, 2, and 4-hours): significantly reversed SNL-induced mechanical hyperalgesia

Structure (SMILES): CN1CC[C@]23c4c5ccc(O)c4O[C@H]2[C@@H](O)C=C[C@H]3[C@H]1C5 [Morphine]
- reversal of hind limb weight bearing asymmetry vs pre-dosing baseline ([4]; 6 mg/kg subcutaneous, 1 and 2 hours): time-dependent reversal of hind limb weight bearing asymmetry
- improvement in weight-bearing ([4]; 6 mg/kg subcutaneous, 4-hours): did not produce significant improvement
